Laboratory results as given in patent US20060030720A1, “Method for synthesizing macrosphelides” (priority 2002, published 2006).

melting point: 94 to 95 °C
Compound: C[C@H]1C/C=C/C(=O)O[C@@H](C)CC(=O)O[C@@H](C)C/C=C/C(=O)O1 [Example 1]
